Source: patent publication US9346809B2 (LEO PHARMA A/S, priority 2009, dated 2016)
Read-outs that look alike come from different tables or passages of the source.

Tests used:
Assay type in all cases: biochemical
[1] = target: T1, JAK2 (catalytic domain, His-tag) (Homo sapiens, UniProt O60674); test: JAK kinase assay (HTRF, phosphorylation of TK substrate-biotin), JAK2; conditions: ATP at Km (4 μM), read-out: JAK2 kinase inhibitory activity (EC50 indicator)
T1 construct: All four purified enzymes contain only the catalytic domain; His (N); purchased Carna Biosciences, Inc; host or cells: baculovirus expression system
Summary of the method: (§1)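 HTRF KinEASE TK format; 1 μM biotinylated peptide, Km ATP: 7 μM (JAK1, 10 mM MgCl2, 50 nM SEB), 4 μM (JAK2), 2 μM (JAK3), 13 μM (TYK2, 50 nM SEB); 5 mM MgCl2 for the latter three. RT 20-30 min, 0.75% DMSO final. Overnight detection, EC50.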

[2] = target: T2, JAK3 (catalytic domain, His-tag) (Homo sapiens, UniProt P52333); test: JAK kinase assay (HTRF, phosphorylation of TK substrate-biotin), JAK3; conditions: ATP at Km (2 μM), read-out: JAK3 kinase inhibitory activity (EC50 indicator)
T2 construct: All four purified enzymes contain only the catalytic domain; His (N); purchased Carna Biosciences, Inc; host or cells: baculovirus expression system
Summary of the method: as §1

[3] = target: T3, TYK2 (aa 871-1187, catalytic domain, GST-tag) (Homo sapiens, UniProt P29597); test: JAK kinase assay (HTRF, phosphorylation of TK substrate-biotin), TYK2; conditions: ATP at Km (13 μM), read-out: TYK2 kinase inhibitory activity (EC50 indicator)
T3 construct: JAK1 (aa 850-1154) and TYK2 (aa 871-1187) are expressed with an N-terminally fused GST-tag; GST (N); purchased Carna Biosciences, Inc; host or cells: baculovirus expression system
T3 sequence (P29597 871-1187): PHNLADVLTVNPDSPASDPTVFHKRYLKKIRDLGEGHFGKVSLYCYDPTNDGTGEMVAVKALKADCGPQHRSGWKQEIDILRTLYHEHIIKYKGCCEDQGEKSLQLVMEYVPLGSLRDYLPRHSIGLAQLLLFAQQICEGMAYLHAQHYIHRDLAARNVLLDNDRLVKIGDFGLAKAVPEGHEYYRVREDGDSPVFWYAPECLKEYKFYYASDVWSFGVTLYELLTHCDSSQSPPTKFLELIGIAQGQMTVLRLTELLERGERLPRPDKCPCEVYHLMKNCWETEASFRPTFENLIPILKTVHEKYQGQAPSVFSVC
Summary of the method: as §1

[4] = target: T4, JAK1 (aa 850-1154, catalytic domain, GST-tag) (Homo sapiens, UniProt P23458); test: JAK kinase assay (HTRF, phosphorylation of TK substrate-biotin), JAK1; conditions: ATP at Km (7 μM), read-out: JAK1 kinase inhibitory activity (EC50 indicator)
T4 construct: JAK1 (aa 850-1154) and TYK2 (aa 871-1187) are expressed with an N-terminally fused GST-tag; GST (N); purchased Carna Biosciences, Inc; host or cells: baculovirus expression system
Summary of the method: as §1

T4 sequence (P23458 850-1154): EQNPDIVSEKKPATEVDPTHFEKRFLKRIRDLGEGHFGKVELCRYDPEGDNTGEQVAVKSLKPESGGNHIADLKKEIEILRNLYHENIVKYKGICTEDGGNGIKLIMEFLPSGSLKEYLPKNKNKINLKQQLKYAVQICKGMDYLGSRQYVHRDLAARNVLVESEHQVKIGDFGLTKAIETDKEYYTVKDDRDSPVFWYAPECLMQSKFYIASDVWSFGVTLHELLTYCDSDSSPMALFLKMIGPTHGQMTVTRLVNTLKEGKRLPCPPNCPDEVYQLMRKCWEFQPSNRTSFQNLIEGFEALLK
T2 sequence (P52333 822-1111 limits assumed): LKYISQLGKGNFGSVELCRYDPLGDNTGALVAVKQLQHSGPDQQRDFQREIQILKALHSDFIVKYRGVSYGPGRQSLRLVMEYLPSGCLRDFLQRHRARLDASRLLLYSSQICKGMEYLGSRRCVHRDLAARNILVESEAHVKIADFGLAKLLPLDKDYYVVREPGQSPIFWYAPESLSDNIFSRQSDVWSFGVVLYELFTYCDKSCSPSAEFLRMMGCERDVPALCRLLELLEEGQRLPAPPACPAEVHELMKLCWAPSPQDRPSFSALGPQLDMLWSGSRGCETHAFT
T1 sequence (O60674 849-1124 limits assumed): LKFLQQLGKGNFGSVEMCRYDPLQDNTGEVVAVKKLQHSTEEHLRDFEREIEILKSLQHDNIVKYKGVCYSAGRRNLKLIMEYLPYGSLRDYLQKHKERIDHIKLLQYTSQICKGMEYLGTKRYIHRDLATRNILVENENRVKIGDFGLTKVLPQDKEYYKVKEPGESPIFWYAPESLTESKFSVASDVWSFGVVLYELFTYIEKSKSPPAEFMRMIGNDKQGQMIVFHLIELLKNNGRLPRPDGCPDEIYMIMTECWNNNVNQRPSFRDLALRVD

SMILES	EC50 ([1]; HTRF assay)	EC50 ([2]; HTRF assay)	EC50 ([3]; HTRF assay)	EC50 ([4]; HTRF assay)	EC50 [1]	EC50 [2]	EC50 [3]	EC50 [4]
O=C(c1cc2ccccc2[nH]1)N1CCN(c2ncnc3[nH]ccc23)CC12CC2 [Example 55, (1H-Indol-2-yl)-[7-(7H-pyrrolo[2,3-d]pyrimidin-4-yl)-4,7-diazaspiro[2.5]oct-4-yl]methanone]	–	–	–	–	< 100 nM	< 100 nM	100 to 500 nM	< 100 nM
Cc1cnc(C(=O)N2[C@@H]3CC[C@H]2CN(c2ncnc4[nH]ccc24)C3)cn1 [Example 74, (5-Methyl-pyrazin-2-yl)-[3-(7H-pyrrolo[2,3-d]pyrimidin-4-yl)-3,8-diaza-bicyclo[3.2.1]oct-8-yl]-methanone]	–	–	–	–	100 to 500 nM	> 500 nM	> 500 nM	100 to 500 nM
N#Cc1csc(C(=O)N2CCN(c3ncnc4[nH]ccc34)CC23CC3)c1 [Example 60, 5-[7-(7H-Pyrrolo[2,3-d]pyrimidin-4-yl)-4,7-diaza-spiro[2.5]octane-4-carbonyl]-thiophene-3-carbonitrile]	–	–	–	–	< 100 nM	< 100 nM	< 100 nM	< 100 nM
O=C(CCC(F)(F)F)N1CCN(c2ncnc3[nH]ccc23)CC12CC2 [Example 28, 4,4,4-Trifluoro-1-[7-(7H-pyrrolo[2,3-d]pyrimidin-4-yl)-4,7-diazaspiro[2.5]oct-4-yl]butan-1-one]	–	–	–	–	< 100 nM	< 100 nM	100 to 500 nM	< 100 nM
O=C(C1CCCO1)N1CCN(c2ncnc3[nH]ccc23)CC12CC2 (centres unmarked) [Example 22, [7-(7H-Pyrrolo[2,3-d]pyrimidin-4-yl)-4,7-diazaspiro[2.5]oct-4-yl]-(tetrahydrofuran-2-yl)methanone]	–	–	–	–	< 100 nM	100 to 500 nM	> 500 nM	100 to 500 nM
O=C(c1cc2ccccc2s1)N1CCN(c2ncnc3[nH]ccc23)CC12CCCC2 [Example 75, Benzo[b]thiophen-2-yl-[9-(7H-pyrrolo[2,3-d]pyrimidin-4-yl)-6,9-diaza-spiro[4.5]dec-6-yl]-methanone]	–	–	–	–	> 500 nM	> 500 nM	> 500 nM	> 500 nM
CCOC(=O)NC(=S)N1[C@@H]2CC[C@H]1CN(c1ncnc3[nH]ccc13)C2 [Example 29, [3-(7H-Pyrrolo[2,3-d]pyrimidin-4-yl)-3,8-diazabicyclo[3.2.1]octane-8-carbothioyl]carbamic acid ethyl ester]	–	–	–	–	100 to 500 nM	> 500 nM	> 500 nM	100 to 500 nM
O=C(c1cc2ccccc2s1)N1CCN(c2ncnc3[nH]ccc23)CC12CC2 [Example 26, Benzo[b]thiophen-2-yl-[7-(7H-pyrrolo[2,3-d]pyrimidin-4-yl)-4,7-diazaspiro[2.5]oct-4-yl]methanone]	–	–	–	–	< 100 nM	100 to 500 nM	100 to 500 nM	< 100 nM
CS(=O)(=O)CCC(=O)N1CCN(c2ncnc3[nH]ccc23)CC12CC2 [Example 37, 3-Methanesulfonyl-1-[7-(7H-pyrrolo[2,3-d]pyrimidin-4-yl)-4,7-diazaspiro[2.5]oct-4-yl]propan-1-one]	–	–	–	–	< 100 nM	100 to 500 nM	> 500 nM	< 100 nM

Second part, the compound after the results:

EC50 ([1]; HTRF assay)	EC50 ([2]; HTRF assay)	EC50 ([3]; HTRF assay)	EC50 ([4]; HTRF assay)	EC50 [1]	EC50 [2]	EC50 [3]	EC50 [4]	SMILES
100 to 500 nM	> 500 nM	> 500 nM	< 100 nM	–	–	–	–	O=C(c1ccc(OC(F)(F)F)cc1)N1CCN(c2ccnc3[nH]ccc23)CC12CC2 [Example 238, [7-(1H-Pyrrolo[2,3-b]pyridin-4-yl)-4,7-diaza-spiro[2.5]oct-4-yl]-(4-trifluoromethoxy-phenyl)-methanone]
< 100 nM	100 to 500 nM	100 to 500 nM	< 100 nM	–	–	–	–	CCCS(=O)(=O)Nc1ccc(C(=O)N2CCN(c3ncnc4[nH]ccc34)CC23CC3)cc1 [Example 431, Propane-1-sulfonic acid {4-[7-(7H-pyrrolo[2,3-d]pyrimidin-4-yl)-4,7-diaza-spiro[2.5]octane-4-carbonyl]-phenyl}-amide]
–	–	–	–	< 100 nM	100 to 500 nM	> 500 nM	< 100 nM	N#Cc1ccc(CS(=O)(=O)N2CCN(c3ncnc4[nH]ccc34)CC23CC3)cc1 [Example 79, 4-[7-(7H-Pyrrolo[2,3-d]pyrimidin-4-yl)-4,7-diaza-spiro[2.5]octane-4-sulfonylmethyl]-benzonitrile]
< 100 nM	< 100 nM	< 100 nM	< 100 nM	–	–	–	–	Cc1sc(C(=O)N2CCN(c3ncnc4[nH]ccc34)CC23CC3)cc1S(N)(=O)=O [Example 374, 2-Methyl-5-[7-(7H-pyrrolo[2,3-d]pyrimidin-4-yl)-4,7-diaza-spiro[2.5]octane-4-carbonyl]-thiophene-3-sulfonic acid amide]
100 to 500 nM	> 500 nM	> 500 nM	100 to 500 nM	–	–	–	–	N#CCc1ccc(CC(=O)N2[C@@H]3CC[C@@H]2CN(c2ncnc4[nH]ccc24)C3)cc1 [Example 347, (4-{2-Oxo-2-[3-(7H-pyrrolo[2,3-d]pyrimidin-4-yl)-3,8-diaza-bicyclo[3.2.1]oct-8-yl]-ethyl}-phenyl)-acetonitrile]
< 100 nM	100 to 500 nM	100 to 500 nM	< 100 nM	–	–	–	–	CCCc1cc(C(=O)N2CCN(c3ncnc4[nH]ccc34)CC23CC3)cs1 [Example 207, (5-Propyl-thiophen-3-yl)-[7-(7H-pyrrolo[2,3-d]pyrimidin-4-yl)-4,7-diaza-spiro[2.5]oct-4-yl]-methanone]
–	–	–	–	100 to 500 nM	100 to 500 nM	> 500 nM	< 100 nM	Cc1c(C(=O)N2C3CCC2CN(c2ncnc4[nH]ccc24)C3)[nH]c2ccc(F)cc12 [Example 201, (5-Fluoro-3-methyl-1H-indol-2-yl)-[3-(7H-pyrrolo[2,3-d]pyrimidin-4-yl)-3,8-diaza-bicyclo[3.2.1]oct-8-yl]-methanone]
< 100 nM	< 100 nM	< 100 nM	< 100 nM	–	–	–	–	Cc1nc2ccccc2nc1C(=O)N1CCN(c2ncnc3[nH]ccc23)CC12CC2 [Example 419, (3-Methyl-quinoxalin-2-yl)-[7-(7H-pyrrolo[2,3-d]pyrimidin-4-yl)-4,7-diaza-spiro[2.5]oct-4-yl]-methanone]
< 100 nM	100 to 500 nM	> 500 nM	< 100 nM	–	–	–	–	CS(=O)(=O)c1cc(C(=O)N2CCN(c3ncnc4[nH]ccc34)CC23CC3)ccc1F [Example 366, (4-Fluoro-3-methanesulfonyl-phenyl)-[7-(7H-pyrrolo[2,3-d]pyrimidin-4-yl)-4,7-diaza-spiro[2.5]oct-4-yl]-methanone]
< 100 nM	> 500 nM	> 500 nM	100 to 500 nM	–	–	–	–	COc1cccc(C(=O)N2CCN(c3ncnc4[nH]ccc34)CC23CC3)c1OC [Example 212, (2,3-Dimethoxy-phenyl)-[7-(7H-pyrrolo[2,3-d]pyrimidin-4-yl)-4,7-diaza-spiro[2.5]oct-4-yl]-methanone]
–	–	–	–	100 to 500 nM	> 500 nM	> 500 nM	100 to 500 nM	N#CCCN1CCCC(C(=O)N2CCN(c3ncnc4[nH]ccc34)CC23CC3)C1 (centres unmarked) [Example 95, 3-{3-[7-(7H-Pyrrolo[2,3-d]pyrimidin-4-yl)-4,7-diaza-spiro[2.5]octane-4-carbonyl]-piperidin-1-yl}-propionitrile]
100 to 500 nM	100 to 500 nM	> 500 nM	100 to 500 nM	–	–	–	–	N#Cc1cccc(CC(=O)N2CCN(c3nc(N)nc4[nH]ccc34)CC23CC3)c1 [Example 311, 3-{2-[7-(2-Amino-7H-pyrrolo[2,3-d]pyrimidin-4-yl)-4,7-diaza-spiro[2.5]oct-4-yl]-2-oxo-ethyl}-benzonitrile]
< 100 nM	< 100 nM	< 100 nM	< 100 nM	–	–	–	–	NS(=O)(=O)c1cccc(C(=O)N2CCN(c3ncnc4[nH]ccc34)CC23CC3)c1 [Example 371, 3-[7-(7H-Pyrrolo[2,3-d]pyrimidin-4-yl)-4,7-diaza-spiro[2.5]octane-4-carbonyl]-benzenesulfonamide]
< 100 nM	< 100 nM	> 500 nM	< 100 nM	–	–	–	–	NS(=O)(=O)c1cnn(CC(=O)N2CCN(c3ncnc4[nH]ccc34)CC23CC3)c1 [Example 412, 1-{2-Oxo-2-[7-(7H-pyrrolo[2,3-d]pyrimidin-4-yl)-4,7-diaza-spiro[2.5]oct-4-yl]-ethyl}-1H-pyrazole-4-sulfonic acid amide]
